According to patent US8557843B2, “Quinoline derivatives and their use as tyrosine kinase inhibitors” (ClanoTech AB, priority 2007, dated 2013):

Assays:
[1] = system: CNV (chorodial neovascularization); assay: Laser induced mouse eye model (CNV); type: in vivo; details: given orally at 50 mg/kg/day, laser-induced CNV in mice
Text: This laser-induced model of CNV is a highly reproducible model that mimics many features of CNV occurring in the wet form of age-related macular degeneration (AMD), the leading cause of blindness in the elderly.

[2] = system: human Calu-6 lung cancer cells; assay: Tumor xenograft model; type: in vivo, SCID mice; details: 25 mg/kg/day; for inhibition of tumor volume: once daily for 17 days, Calu-6 subcutaneous in SCID mice
Protocol: Female 6-week-old SCID mice were used for tumor studies. Approximately 10^6 human Calu-6 lung cancer cells growing in logarithmic phase were harvested and resuspended in media, and a single cell solution in a volume of […] was implanted subcutaneously at the right flank of each animal. 10 mice were used in the treated groups and 10 mice were used in the control groups. Systemic treatment by oral administration or iv injections with either […] of vehicle or active substance (25 mg/kg/day) was begun when tumors reached a size of 300 mm^3 and continued once daily for a total of 17 days. Visible tumors were present day 5-10 after implantation. Primary tumors were measured with digital calipers on the days indicated. Tumor volumes were calculated according to the formula: Length×width^2×0.52 as reported.

alpha-v-beta-3 = target: T1, alpha-v-beta-3 (Homo sapiens, UniProt P05106+P06756); assay: Integrin assay: SHG, inhibition of RGD-peptide-induced conformational change; type: biochemical; details: compound pre-incubated at 100 μM for 20 minutes, then RGD peptide 400 μM; labeled alpha-v-beta-3
T1 construct: obtained from academic sources as recombinant, soluble proteins (the extracellular domain)
T1 sequence (P06756 31-992 limits assumed): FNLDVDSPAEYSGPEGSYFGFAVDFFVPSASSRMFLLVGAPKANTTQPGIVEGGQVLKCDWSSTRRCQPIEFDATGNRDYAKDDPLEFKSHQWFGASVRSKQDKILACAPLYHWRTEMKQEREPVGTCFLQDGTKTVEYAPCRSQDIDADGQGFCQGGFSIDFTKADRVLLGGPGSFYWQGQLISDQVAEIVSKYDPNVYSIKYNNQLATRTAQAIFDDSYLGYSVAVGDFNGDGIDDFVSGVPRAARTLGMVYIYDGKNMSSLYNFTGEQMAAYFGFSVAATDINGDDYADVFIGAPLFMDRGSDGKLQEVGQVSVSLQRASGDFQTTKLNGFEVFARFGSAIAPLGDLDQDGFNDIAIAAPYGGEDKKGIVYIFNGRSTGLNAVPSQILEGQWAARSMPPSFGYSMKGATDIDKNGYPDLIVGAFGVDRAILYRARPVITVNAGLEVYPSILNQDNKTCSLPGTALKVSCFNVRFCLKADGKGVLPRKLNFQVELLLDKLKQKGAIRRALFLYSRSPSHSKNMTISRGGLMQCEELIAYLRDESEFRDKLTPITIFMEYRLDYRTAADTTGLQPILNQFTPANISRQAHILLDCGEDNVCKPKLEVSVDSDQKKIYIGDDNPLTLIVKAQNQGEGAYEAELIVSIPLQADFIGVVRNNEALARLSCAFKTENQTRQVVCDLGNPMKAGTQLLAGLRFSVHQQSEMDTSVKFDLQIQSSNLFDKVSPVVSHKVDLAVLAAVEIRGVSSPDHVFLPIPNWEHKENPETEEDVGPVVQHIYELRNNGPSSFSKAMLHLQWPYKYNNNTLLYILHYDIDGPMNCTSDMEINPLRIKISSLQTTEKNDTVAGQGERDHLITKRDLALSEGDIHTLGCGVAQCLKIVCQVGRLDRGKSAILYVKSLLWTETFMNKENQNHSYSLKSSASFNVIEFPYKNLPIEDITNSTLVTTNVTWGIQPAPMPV
T1 sequence (P05106 27-718 limits assumed): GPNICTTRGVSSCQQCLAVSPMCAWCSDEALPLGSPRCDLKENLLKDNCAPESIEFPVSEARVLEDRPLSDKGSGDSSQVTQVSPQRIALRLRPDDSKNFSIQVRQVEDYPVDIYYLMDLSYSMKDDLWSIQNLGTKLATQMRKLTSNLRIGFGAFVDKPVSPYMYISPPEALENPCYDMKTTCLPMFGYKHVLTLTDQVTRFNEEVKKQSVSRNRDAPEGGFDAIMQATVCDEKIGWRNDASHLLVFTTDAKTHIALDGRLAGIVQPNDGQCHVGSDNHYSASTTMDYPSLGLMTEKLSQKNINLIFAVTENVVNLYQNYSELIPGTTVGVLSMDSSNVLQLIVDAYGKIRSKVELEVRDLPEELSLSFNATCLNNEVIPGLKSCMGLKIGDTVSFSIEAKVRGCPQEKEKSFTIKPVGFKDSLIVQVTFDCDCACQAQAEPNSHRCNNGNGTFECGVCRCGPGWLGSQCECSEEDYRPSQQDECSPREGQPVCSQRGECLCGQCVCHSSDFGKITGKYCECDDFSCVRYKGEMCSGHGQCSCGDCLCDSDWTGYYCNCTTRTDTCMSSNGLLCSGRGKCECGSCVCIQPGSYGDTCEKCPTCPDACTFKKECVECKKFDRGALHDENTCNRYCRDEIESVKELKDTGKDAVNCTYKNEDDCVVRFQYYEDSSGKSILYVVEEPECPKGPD
Protocol: (§1) This assay was conducted by Biodesy (Burlingame, Calif., USA). Purified integrins were obtained from academic and commercial sources. Alpha-5-beta-1 and alpha-v-beta-3 were obtained from academic sources as recombinant, soluble proteins (the extracellular domain).
(§2) A standard labeling protocol developed for integrins was applied to each of the three proteins. All proteins were successfully labeled with an average label:protein ratio of ˜4:1. The two soluble, labeled proteins (alpha5beta1 and alphavbeta3) produced background SHG (second-harmonic generation) signals. They also produced conformational change signals upon exposure to GRGDSP (RGD-peptide, a fibronectin-derived peptide Gly-Arg-Gly-Asp-Ser-Pro). The peptide was added at 400 μM and signal changes were immediate (FIG. 1).
(§3) Next, Example 4 was pre-incubated at 100 μM with the labeled proteins for 20 minutes. RGD peptide was then added (400 μM) to stimulate the protein and to test each compound for inhibition.

alpha-5-beta-1 = target: T2, alpha-5-beta-1 (Homo sapiens, UniProt P05556+P08648); assay: as above; type: biochemical; details: compound pre-incubated at 100 μM for 20 minutes, then RGD peptide 400 μM; labeled alpha-5-beta-1
T2 construct: obtained from academic sources as recombinant, soluble proteins (the extracellular domain)
T2 sequence (P08648 42-995 limits assumed): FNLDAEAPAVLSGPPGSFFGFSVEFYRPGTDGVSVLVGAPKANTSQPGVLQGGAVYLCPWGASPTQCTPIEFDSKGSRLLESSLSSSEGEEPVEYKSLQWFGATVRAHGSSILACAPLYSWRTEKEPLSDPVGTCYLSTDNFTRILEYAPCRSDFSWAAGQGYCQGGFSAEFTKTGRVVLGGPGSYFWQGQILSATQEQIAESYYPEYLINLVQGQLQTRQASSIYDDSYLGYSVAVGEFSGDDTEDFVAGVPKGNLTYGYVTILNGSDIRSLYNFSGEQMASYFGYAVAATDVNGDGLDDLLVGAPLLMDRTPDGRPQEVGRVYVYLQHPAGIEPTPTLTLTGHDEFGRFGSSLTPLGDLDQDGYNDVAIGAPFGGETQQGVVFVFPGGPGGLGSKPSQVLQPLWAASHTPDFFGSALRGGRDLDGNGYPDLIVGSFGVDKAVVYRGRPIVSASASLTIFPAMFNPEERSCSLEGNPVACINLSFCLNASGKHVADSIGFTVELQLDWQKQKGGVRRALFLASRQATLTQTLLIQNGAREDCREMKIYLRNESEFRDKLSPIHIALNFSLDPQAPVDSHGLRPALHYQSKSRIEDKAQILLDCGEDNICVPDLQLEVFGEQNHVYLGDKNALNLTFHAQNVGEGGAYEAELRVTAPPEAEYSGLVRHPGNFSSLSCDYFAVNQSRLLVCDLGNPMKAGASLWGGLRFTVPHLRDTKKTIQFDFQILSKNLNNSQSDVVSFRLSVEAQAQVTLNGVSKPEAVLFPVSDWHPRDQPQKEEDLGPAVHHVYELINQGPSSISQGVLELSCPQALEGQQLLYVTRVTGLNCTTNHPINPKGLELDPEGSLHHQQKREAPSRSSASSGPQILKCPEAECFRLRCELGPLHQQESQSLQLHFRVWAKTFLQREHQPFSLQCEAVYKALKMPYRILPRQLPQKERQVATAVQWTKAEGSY
T2 sequence (P05556 21-728 limits assumed): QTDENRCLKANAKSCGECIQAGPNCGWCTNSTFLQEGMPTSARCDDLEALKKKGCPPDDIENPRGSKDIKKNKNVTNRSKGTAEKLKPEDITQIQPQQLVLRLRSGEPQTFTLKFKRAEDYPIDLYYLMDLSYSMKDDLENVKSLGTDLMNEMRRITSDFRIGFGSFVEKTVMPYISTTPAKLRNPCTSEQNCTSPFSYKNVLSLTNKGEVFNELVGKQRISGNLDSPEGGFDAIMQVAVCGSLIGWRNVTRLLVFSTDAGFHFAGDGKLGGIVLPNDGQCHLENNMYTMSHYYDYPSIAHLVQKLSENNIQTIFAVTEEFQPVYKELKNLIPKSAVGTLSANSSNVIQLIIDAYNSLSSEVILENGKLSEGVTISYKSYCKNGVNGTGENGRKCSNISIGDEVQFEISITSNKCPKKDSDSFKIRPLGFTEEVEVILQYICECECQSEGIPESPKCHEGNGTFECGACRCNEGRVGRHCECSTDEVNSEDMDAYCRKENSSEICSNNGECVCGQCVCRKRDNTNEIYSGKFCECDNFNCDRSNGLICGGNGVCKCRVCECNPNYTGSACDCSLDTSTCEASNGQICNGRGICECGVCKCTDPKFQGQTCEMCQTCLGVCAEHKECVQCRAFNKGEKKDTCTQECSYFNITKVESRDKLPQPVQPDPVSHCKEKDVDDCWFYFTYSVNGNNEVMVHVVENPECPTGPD
Protocol: as §1, §2, §3

SMILES: CNC(=O)c1ccc2ncc(C(=O)O)c(Nc3ccc(OC)cc3)c2c1 [Example 4, 4-[(4-Methoxyphenyl)amino]-6-(methylcarbamoyl)quinoline-3-carboxylic Acid]
- inhibition of CNV growth in eye compared with control [1]: 42%
- inhibition of angiogenesis ([2]; both groups (oral and iv), Calu-6 xenograft): inhibits angiogenesis significantly
- inhibition of tumor volume ([2]; iv treatment): 71%
- inhibition of tumor volume ([2]; oral treatment): 52%
- effect on RGD-induced conformational change (SHG signal) (alpha-v-beta-3): no effect
- effect on RGD-induced conformational change (SHG signal) (alpha-5-beta-1): prevented RGD-induced conformational change
